How the values were obtained:
[1] = test system: Rattus norvegicus; test: Acute in vivo activity measured by total plasma cholesterol concentration levels (TC) at 30 mg/kg dose; type: functional
[2] = target: T1, Sterol O-acyltransferase 1 (Rattus norvegicus) (UniProt O70536); test: Chronic in vivo activity was measured by the concentration of high density lipoproteins (HDL) in cholesterol fed rats; type: functional, organism-based
T1 sequence (whole entry): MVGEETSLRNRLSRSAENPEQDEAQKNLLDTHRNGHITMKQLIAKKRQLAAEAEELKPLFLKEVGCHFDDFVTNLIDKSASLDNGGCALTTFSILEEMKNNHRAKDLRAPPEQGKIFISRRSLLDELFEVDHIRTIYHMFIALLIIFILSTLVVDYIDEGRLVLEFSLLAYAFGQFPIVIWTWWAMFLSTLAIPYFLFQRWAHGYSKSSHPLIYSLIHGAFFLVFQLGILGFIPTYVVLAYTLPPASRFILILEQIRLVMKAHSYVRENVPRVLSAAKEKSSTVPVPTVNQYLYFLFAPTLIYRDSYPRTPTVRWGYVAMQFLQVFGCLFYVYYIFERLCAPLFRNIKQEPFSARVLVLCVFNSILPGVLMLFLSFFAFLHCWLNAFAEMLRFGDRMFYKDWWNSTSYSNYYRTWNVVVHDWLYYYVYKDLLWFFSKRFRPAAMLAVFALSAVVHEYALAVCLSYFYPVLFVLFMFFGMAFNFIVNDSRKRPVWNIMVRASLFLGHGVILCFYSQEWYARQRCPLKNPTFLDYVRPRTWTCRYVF

[3] = target: T1, Sterol O-acyltransferase 1 (Rattus norvegicus); test: Chronic in vivo activity was measured by the total cholesterol concentration levels in cholesterol fed rats; type: functional, organism-based
[4] = target: T2, Sterol O-acyltransferase 1 (Rattus norvegicus, UniProt O70536); test: In vitro inhibitory activity against acyl coenzyme A:cholesterol acyltransferase 1 in microsomes of rat liver
T2 sequence (O70536 whole entry): T1 sequence (whole entry)

[5] = target: T1, Sterol O-acyltransferase 1 (Rattus norvegicus); test: Acute in vivo activity was measured by the total plasma cholesterol concentration levels(TC) at dose 3 mg/kg; type: functional, organism-based; design: dose 3 mg/kg
[6] = target: T1, Sterol O-acyltransferase 1 (Rattus norvegicus); test: Acute in vivo activity was measured by the total plasma cholesterol concentration levels(TC) at dose 50 mg/kg; type: functional, organism-based; design: dose 50 mg/kg

SMILES | Delta TC [1] [%] | Delta HDL [2] [%] | Delta TC [3] [%] | IC50 [4] [µM] | Delta TC [5] [%] | Delta TC [6] [%]
CCCCCCCCCCCCOS(=O)(=O)NC(=O)Oc1c(C(C)C)cccc1C(C)C | -68 | 31 | -56 | 13 | -63 | –
CC(C)c1cccc(C(C)C)c1OS(=O)(=O)NC(=O)Oc1c(C(C)C)c(C(C)C)c(F)c(C(C)C)c1C(C)C | -71 | 208 | -74 | 13 | -47 | –
CCCN(CCC)S(=O)(=O)NC(=O)Nc1c(C(C)C)cccc1C(C)C | -60 | 78 | -53 | 1.1 | -51 | –
CC(C)c1cccc(C(C)C)c1NC(=O)NS(=O)(=O)N(Cc1ccccc1)Cc1ccccc1 | -36 | 183 | -28 | 2.2 | -18 | –
CC(C)c1cccc(C(C)C)c1NC(=O)NS(=O)(=O)NC(c1ccccc1)c1ccccc1 | – | – | – | 4.1 | – | -14
CC(C)c1cc(O)cc(C(C)C)c1OC(=O)NS(=O)(=O)Oc1c(C(C)C)cccc1C(C)C | -55 | 95 | -25 | > 50 | -5 | –
CC(C)c1cccc(C(C)C)c1OS(=O)(=O)NC(=O)Oc1c(C(C)(C)C)cc(C(C)(C)C)cc1C(C)(C)C | -76 | 108 | -78 | 26 | -69 | –
Cc1cc(C(C)(C)C)c(OC(=O)NS(=O)(=O)Nc2ccccc2)c(C(C)(C)C)c1 | – | – | – | 23.4 | – | -33
CC(C)c1cccc(C(C)C)c1OC(=O)NS(=O)(=O)NCC(c1ccccc1)c1ccccc1 | – | – | – | 49 | – | -29
CC(C)c1cc(F)cc(C(C)C)c1OC(=O)NS(=O)(=O)Oc1c(C(C)C)cccc1C(C)C | -72 | 143 | -52 | > 50 | – | –
CC(C)c1cc(C(C)C)c(NC(=O)NS(=O)(=O)Oc2c(C(C)C)cccc2C(C)C)c(C(C)C)c1 | -68 | 18 | -59 | 23 | -51 | –
CC(C)c1cc(C(C)(C)C)cc(C(C)C)c1OC(=O)NS(=O)(=O)Oc1c(C(C)C)cccc1C(C)C | -58 | 177 | -72 | 8.8 | -55 | –
CCCCCCCCN(CCCCCCCC)S(=O)(=O)NC(=O)Nc1c(C(C)C)cccc1C(C)C | -53 | 150 | -56 | 1.9 | -38 | –
CC(C)c1cc(C(C)C)c(OC(=O)NS(=O)(=O)Oc2c(C(C)C)cc(C(C)C)cc2C(C)C)c(C(C)C)c1 | -65 | 129 | -62 | 22 | -32 | –
COc1cccc(OC)c1OS(=O)(=O)NC(=O)Oc1c(C(C)C)cccc1C(C)C | -70 | 208 | -62 | > 50 | -63 | –
CC(C)(C)c1cccc(C(C)(C)C)c1OC(=O)NS(=O)(=O)NCC(c1ccccc1)c1ccccc1 | – | – | – | 21.8 | – | -32
CC(C)c1cccc(C(C)C)c1NC(=O)NS(=O)(=O)N(C(C)C)C(C)(C)C | -17 | 43 | -48 | 0.14 | -55 | –
COc1cc(OC)c(OS(=O)(=O)NC(=O)Oc2c(C(C)C)cccc2C(C)C)c(OC)c1 | -61 | 62 | -37 | > 50 | -37 | –
CC(C)c1cccc(C(C)C)c1OC(=O)NS(=O)(=O)Nc1nc2ccccc2[nH]1 | – | – | – | 52 | – | 8

SMILES | Delta TC [1] [%] | Delta HDL [2] [%] | Delta TC [3] [%] | IC50 [4] [µM] | Delta TC [5] [%] | Delta TC [6] [%]
CC(C)c1ccc(C(C)C)c(NC(=O)NS(=O)(=O)Oc2c(C(C)C)cccc2C(C)C)c1 | -43 | 5 | -43 | 8.7 | -1 | –
CC(C)(C)c1cccc(C(C)(C)C)c1OC(=O)NS(=O)(=O)N(Cc1ccccc1)Cc1ccccc1 | – | – | – | 11 | – | -3
CC(C)c1cccc(C(C)C)c1OC(=O)NS(=O)(=O)NC(c1ccccc1)c1ccccc1 | – | – | – | 10.6 | – | 46
COc1cc(C(C)C)c(OC(=O)NS(=O)(=O)Oc2c(C(C)C)cccc2C(C)C)c(C(C)C)c1 | -56 | 8 | -12 | > 25 | 1 | –
CC(C)c1cccc(C(C)C)c1OS(=O)(=O)NC(=O)Oc1c(C(C)(C)C)cccc1C(C)(C)C | -70 | 25 | -64 | 12 | -50 | –
CC(C)c1cccc(C(C)C)c1NC(=O)NS(=O)(=O)NCC(c1ccccc1)c1ccccc1 | – | – | – | 5.9 | – | -20
CC(C)c1cc(C(C)C)c(OS(=O)(=O)NC(=O)Oc2c(C(C)C)cccc2C(C)C)c(C(C)C)c1 | -67 | 295 | -61 | 29 | -63 | –
CC(C)c1cccc(C(C)C)c1NC(=O)NS(=O)(=O)N(C(C)C)C1CCCCC1 | – | 94 | -63 | 0.36 | -60 | –
CCCCCCCCN(C)S(=O)(=O)NC(=O)Nc1c(C(C)C)cccc1C(C)C | – | 123 | -64 | 3.8 | -57 | –
Cc1cc(C(C)(C)C)c(OC(=O)NS(=O)(=O)Oc2c(C(C)C)cccc2C(C)C)c(C(C)(C)C)c1 | -72 | 205 | -66 | 7.7 | -52 | –
CCCCCCCCCCCCOS(=O)(=O)NC(=O)Oc1c(C(C)(C)C)cc(C)cc1C(C)(C)C | -65 | 23 | -33 | 52 | -41 | –
CC(C)c1cccc(C(C)C)c1OS(=O)(=O)NC(=O)Oc1c(-c2ccccc2)cccc1-c1ccccc1 | -46 | 21 | -38 | 12 | – | –
CCCCCCCCN(CCCCCCCC)S(=O)(=O)NC(=O)Oc1c(C(C)C)cccc1C(C)C | – | 156 | -80 | 58 | -67 | –
CC(C)c1cccc(C(C)C)c1OC(=O)NS(=O)(=O)N(C(C)C)C(C)C | – | 82 | -59 | 15 | -65 | –
CC(C)(C)c1cccc(C(C)(C)C)c1OC(=O)NS(=O)(=O)Nc1ccccc1 | – | – | – | 19 | – | -26
CC(C)c1cc(C(C)C)c(OC(=O)NS(=O)(=O)Oc2c(C(C)C)cccc2C(C)C)c(C(C)C)c1 | -79 | 153 | -74 | 14 | -57 | –
CC(C)c1cccc(C(C)C)c1NC(=O)NS(=O)(=O)NC1c2ccccc2-c2ccccc21 | – | – | – | 25 | – | -4
CCCCCN(CCCCC)S(=O)(=O)NC(=O)Nc1c(C(C)C)cccc1C(C)C | – | 193 | -67 | 0.42 | -68 | –
CC(C)c1cccc(C(C)C)c1OC(=O)NS(=O)(=O)N(C(C)C)C1CCCCC1 | – | 188 | -71 | 5.1 | -49 | –

Reference: ChEMBL document CHEMBL1129522, “Inhibitors of acyl-CoA:cholesterol O-acyltransferase. 17. Structure-activity relationships of several series of compounds derived from N-chlorosulfonyl isocyanate” (J Med Chem, 1996)
